“Also recorded” adds a separate entry of the source.
How the values were obtained:
Type in all cases: in vivo, Female Wistar rats
[1] = Oral glucose (2 g/kg) tolerance test on Day 30 in DIO rats; details: for glucose tolerance (glucose AUC): OGTT 2 g/kg after 30 days of treatment, vs vehicle, FIG. 2a; for AUC of insulin during OGTT: OGTT Day 30, FIG. 2b
Protocol: (§1) In combination studies, sibutramine is dosed once daily with empagliflozin. Orlistat is dosed twice daily: once at the start of the dark phase (in combination with empagliflozin) and again four hours later. Blood samples are taken after approximately 2 and 4 weeks of dosing after a 4 h fast, with the exception of the combination studies with sibutramine and orlistat where samples are taken after an overnight fast. In the studies where empagliflozin is given with either orlistat or sibutramine, animals undergo an oral glucose (2 g/kg) tolerance test on Day 30 after an overnight fast. Blood samples are taken immediately before and 10, 20, 30, 60 and 120 minutes post glucose administration. At the conclusion of each experiment, carcasses are saved for body composition analysis.
(§2) Blood is collected in EDTA-coated collection tubes (Sarstedt) and immediately spun in a cooled centrifuge and the plasma stored frozen. Subsequently, plasma is assayed for content of one or more of the following: glucose, insulin, leptin, glycerol, and triacylglycerol (TAG) content. Blood (collected in an EDTA tube and frozen immediately) is assayed for HbA1c.
(§3) Commercially available enzyme-linked immunosorbent assays (ELISAs) and colorimetric kits are used to assay glucose (Thermo Electron Corp., PA, USA), insulin (Mercodia, Uppsala, Sweden), glycerol and true triglycerides (Sigma, Mo., USA), and leptin (Assay Designs, MI, USA). HbA1c is assayed by a direct enzymatic assay (Diazyme, CA, USA).
(§4) Plasma data are analysed by a general linear model with treatment as a factor. Where appropriate, data undergo a log transformation prior to analysis. Baseline plasma data and Day 1 body weight are included as covariates. HbA1c data are analysed by a robust regression model using M estimation (Huber weighting, using the default parameter c=1.345). Baseline HbA1c levels and Day 1 body weight are included as covariates. Since no differences are observed between the two and four week changes in plasma parameters, only the final plasma data for each study is detailed.

[2] = Carcass body composition (FoodScan NIR) of DIO rats at study conclusion; details: FIG. 3b
Protocol: Carcass composition (body fat, protein and water) is determined using the FoodScan NIR (near infra-red) meat analyser (Foss, UK). Carcasses are milled at the temperature of liquid nitrogen and stored at −20° C. in sealed containers.
Carcass composition data are analysed by robust regression with treatment as factors. Day 1 body weight is included as a covariate.

[3] = Plasma metabolic parameters on Day 30 in DIO rats; details: FIG. 3a; for plasma leptin: Day 30, overnight fast; for plasma glucose / plasma insulin: after 30 days of treatment, vs vehicle
Protocol: as §1, §2, §3, §4

[4] = Body weight in diet-induced obese (DIO) rats, chronic oral dosing; details: Day 29, FIG. 1
Protocol: Female Wistar rats (weight range 250-300 g upon arrival) are obtained from Charles River (Margate, Kent) and housed in pairs or threes at a temperature of 21±4° C. and 55±20% humidity. Animals are maintained on a reverse phase light-dark cycle (lights off for 8 h from 09.30-17.30 h) during which time the room is illuminated by red light. Animals have free access to powdered high fat diet (VRF1 plus 20% lard; Special Diet Services (SDS), Witham, UK), ground chocolate (Cadbury's Dairy Milk®), ground peanuts (Big D®, Trigon Snacks Ltd.) and tap water at all times unless specified otherwise. Animals are housed for 20-24 weeks for the induction of obesity. The work reported in this manuscript is performed in accordance with UK law as detailed in the Animals (Scientific Procedures) Act 1986.
Approximately two weeks before the start of the studies, animals are housed singly in polypropylene cages with wire grid floors (so food spillage could be determined). Each cage contains an appropriate amount of paper bedding for warmth, environmental enrichment and to provide an area for animals to get off the wire grid floor. […]
Statistical analysis is performed by a Statistician. Body weight and food and water intake data are assessed by analysis of covariance (ANCOVA) with treatment as a factor, and baseline data as the covariate. […]

Row | SMILES | glucose tolerance (glucose AUC) [1] | AUC of insulin during OGTT [1] | carcass fat / body fat [2] | plasma leptin [3] | plasma glucose [3] | plasma insulin [3] | weight loss compared with vehicle-treated controls [4] [%] | glucose tolerance (glucose AUC) ([1]; listed as Empagliflozin) | body composition [2]
1 | CC(C)CC(N(C)C)C1(c2ccc(Cl)cc2)CCC1 (stereo not drawn) [sibutramine] | significantly improve glucose tolerance | significant reductions in the glucose and insulin AUC | significantly and selectively reduce carcass fat | reduce plasma leptin | significantly reduces plasma glucose | significantly reduce plasma insulin; also recorded: reduces plasma insulin | 7.0 | – | –
2 | CCCCCCCCCCC[C@@H](C[C@@H]1OC(=O)[C@H]1CCCCCC)OC(=O)[C@H](CC(C)C)NC=O [orlistat] | does not significantly affect glucose tolerance | not significantly decreased | significantly and selectively reduce carcass fat | reduce plasma leptin | – | – | 2.4 | – | –
3 | OC[C@H]1O[C@@H](c2ccc(Cl)c(Cc3ccc(O[C@H]4CCOC4)cc3)c2)[C@H](O)[C@@H](O)[C@@H]1O [empagliflozin, 1-chloro-4-(β-D-glucopyranos-1-yl)-2-[4-((S)-tetrahydrofuran-3-yloxy)-benzyl]-benzene] | improve glucose tolerance | reduced significantly; also recorded: significant reductions in the glucose and insulin AUC | – | – | significantly reduces plasma glucose | significantly reduce plasma insulin; also recorded: either a small effect to reduce plasma insulin or no impact | – | significantly improve glucose tolerance | does not significantly affect body composition

Reference: patent US9192617B2, “Pharmaceutical composition, methods for treating and uses thereof” (Boehringer Ingelheim International GmbH, priority 2012, dated 2015)
